In publication PMC6017121, “New Thiazoline-Tetralin Derivatives and Biological Activity Evaluation” (Molecules : A Journal of Synthetic Chemistry and Natural …, 2018):

Columns and labels:
[1] = tested on: human lung carcinoma cell line (A549); test: MTT cytotoxicity assay on A549; assay type: cell-based
Protocol: (§1) This is a colorimetric assay that measures the reduction of 3-(4,5-dimethylthiazol-2-yl)-2,4,diphenyltetrazolium bromide (MTT) by mitochondria. All final compounds were tested against human breast adenocarcinoma cell line (MCF-7), human lung carcinoma cell line (A549) and mouse embryooblast cell line (NIH/3T3) to determine their cytotoxic profile. Cancer cells were cultured in RPMI medium (Hyclone, Thermo Scientific, Waltham, MA, USA) at 37 °C in a humidified atmosphere of 95% air and 5% CO2. The studied cells were situated at 2 × 10^4 cells into each well of 96-well microtiter tissue culture plates (Nunc, Denmark) and incubated for 24 h. After that, test compounds were dissolved in DMSO and added to culture wells at varying concentrations (85–1000 µM). After a 24 h incubating period, […] MTT solution (5 mg/mL MTT powder in PBS) was added to each well and the cells were incubated for 4 h at 37 °C. The purple formazan crystals produced were dissolved in DMSO and the absorbance was read by ELISA reader (OD570 nm). The percent values of cell proliferations were calculated relative to controls, whose cell proliferations were accepted as 100% [47].

[2] = molecular target: acetylcholinesterase (AChE) (Homo sapiens, UniProt P22303); test: biochemical; conditions: 80 µg/mL (~160 µM)
Chain of acetylcholinesterase (AChE) (P22303 32-614, species assumed): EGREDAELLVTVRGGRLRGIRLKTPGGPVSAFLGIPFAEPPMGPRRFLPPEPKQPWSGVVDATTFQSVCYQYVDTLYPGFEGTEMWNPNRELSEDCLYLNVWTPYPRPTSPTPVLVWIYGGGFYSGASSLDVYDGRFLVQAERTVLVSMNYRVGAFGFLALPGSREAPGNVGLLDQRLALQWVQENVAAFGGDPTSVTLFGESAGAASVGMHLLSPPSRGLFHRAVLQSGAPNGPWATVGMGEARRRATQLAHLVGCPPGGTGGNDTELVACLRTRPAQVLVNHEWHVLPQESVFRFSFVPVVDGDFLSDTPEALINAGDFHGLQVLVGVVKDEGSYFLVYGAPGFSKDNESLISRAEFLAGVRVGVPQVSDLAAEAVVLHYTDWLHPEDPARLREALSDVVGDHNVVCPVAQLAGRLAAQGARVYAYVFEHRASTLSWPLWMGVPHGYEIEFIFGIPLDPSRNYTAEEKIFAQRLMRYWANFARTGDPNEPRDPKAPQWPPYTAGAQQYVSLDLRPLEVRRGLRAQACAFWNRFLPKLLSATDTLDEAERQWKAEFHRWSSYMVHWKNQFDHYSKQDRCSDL
Protocol: (§2) In order to determine the acetyl- and butyrylcholinesterase enzyme inhibitions, experiments were carried out by making some changes in the method developed by Ellman. Samples were prepared by dissolving in the appropriate solvent. Adding 20 μL enzyme solution (AChE or BuChE, 1 U/mL) and 10 μL sample solution to 2.4 mL buffer solution and it was incubated for 15 min at 37 °C. After incubation, 50 μL DTNB and 75 mM ATCI solution or 20 μL of 25 mM BTCI solution were added and allowed the mixture to incubate at room temperature for 30 min. For the control group, only 10 μL of solvent was added instead of the sample solution provided all protocols are the same. […] Experiments were run in triplicate. The inhibition fractions of AChE […] BuChE enzymes were calculated using the following equation:I(%) = 100 − ([…]) × 100

[3] = molecular target: butyrylcholinesterase (BuChE) (Homo sapiens, UniProt P06276); test: biochemical; conditions: 80 µg/mL (~160 µM)
Chain of butyrylcholinesterase (BuChE) (P06276 29-602): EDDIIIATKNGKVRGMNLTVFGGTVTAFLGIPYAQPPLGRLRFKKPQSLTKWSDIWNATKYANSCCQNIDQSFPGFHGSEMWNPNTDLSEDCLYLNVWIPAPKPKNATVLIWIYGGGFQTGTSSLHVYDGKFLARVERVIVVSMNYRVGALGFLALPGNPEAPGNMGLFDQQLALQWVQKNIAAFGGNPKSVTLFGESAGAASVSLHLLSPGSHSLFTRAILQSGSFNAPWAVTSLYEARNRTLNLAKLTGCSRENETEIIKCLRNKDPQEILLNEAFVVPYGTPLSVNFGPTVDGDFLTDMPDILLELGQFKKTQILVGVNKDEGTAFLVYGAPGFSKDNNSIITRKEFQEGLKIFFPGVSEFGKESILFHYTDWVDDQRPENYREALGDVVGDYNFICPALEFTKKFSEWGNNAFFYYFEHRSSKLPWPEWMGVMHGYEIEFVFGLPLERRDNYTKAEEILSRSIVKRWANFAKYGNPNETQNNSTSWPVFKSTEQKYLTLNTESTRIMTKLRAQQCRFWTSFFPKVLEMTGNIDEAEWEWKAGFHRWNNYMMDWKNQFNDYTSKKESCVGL
Protocol: as §2

A549 cells [4] = test: Annexin V-FITC/propidium iodide flow cytometry on A549; assay type: cell-based, human; conditions: A549 cell line, IC50 concentration
Protocol: Evaluation of apoptosis was carried out through the Annexin V-FITC Apoptosis Detection Kit from BD, Pharmingen, according to the manufacturer’s instruction. […] Then cells were rinsed with cold water twice and resuspended in Annexin V-FITC binding buffer at a concentration of 1 × 10^6 cells/mL. […] of Annexin V-FITC was used to stain the cells. After 15 min of incubation at 25 °C, the cell suspension was centrifugated for 5 min and cells were resuspended in Annexin V-FITC binding buffer. Propidium iodide ([…]) was added and the tubes were situated on ice and away from light. The fluorescence was measured using a flow cytometer. The results were analyzed by using FCSExpress software and represented as percentage of normal and apoptotic cells at various stages. […] The four areas in the diagrams stand for necrotic cells (Q1, positive for PI and negative for annexin/FITC, left square on the top), live cells (Q3, negative for annexin and PI, left square at the bottom), late apoptotic or necrotic cells (Q2, positive for annexin and PI, right square on the top) and apoptotic cells (Q4, negative for PI and positive for annexin, right square at the bottom), respectively. The experiment was repeated three times.

[5] = tested on: human breast adenocarcinoma cell line (MCF-7); test: MTT cytotoxicity assay on MCF-7; assay type: cell-based
Protocol: as §1

A549 cells [6] = test: DNA synthesis inhibition (BrdU) on A549; conditions: Homo sapiens, A549, 4 h, read-out: DNA synthesis inhibition on A549 at IC50, IC50 concentration (4h 48.6 μM; cisplatin 108.3 μM)
Protocol: The 5-bromo-2′-deoxy-uridine (BrdU) cell proliferation assay [48] was used to detect the proliferation of A549 and C6 cells. […] At the end of each day, the cells were labelled with 10 mL BrdU solution for 2 h and then fixed. Anti-BrdU-POD (100 mL) was added and incubated for 90 min. Finally, microtiter plates were washed with phosphate buffered saline (PBS) three times and the cells were incubated with substrate solution until the color was sufficient for photometric detection. […] The growth percentage was evaluated spectrophotometrically versus untreated controls with used cell viability of growth assay. Results for each spectrophotometrical measure were noticed as percent of growth inhibition. All experiments were done in triplicates.
Mean percent absorbance of untreated control cells were assumed 0%. […] Data points represent means for three independent wells ± SD. p < 0.05.

[7] = tested on: mouse embryoblast cell line (NIH/3T3); test: MTT cytotoxicity assay on NIH/3T3 (healthy cells); assay type: cell-based; conditions: NIH3T3, 24 h incubation
Protocol: as §1

Compound: O=C(COc1ccc2c(c1)CCCC2)N/N=c1\scc(-c2ccc(F)cc2)n1-c1ccccc1 [Compound 4h, N′-[3-Phenyl-4-(4-florophenyl)thiazole-2(3H)-ylidene]-2-[(5,6,7,8-tetrahydronaphthalen-2-yl)oxy]acetohydrazide]
- IC50 ([1]; Homo sapiens, A549, MTT, 24 h incubation): 48.6 ± 6 µM
- SI A549 (selectivity index) ([1]; NIH/3T3 versus A549): 5.1
- inhibition at 160 µM [2]: 49.9 ± 1.44%
- inhibition at 80 µg/mL [3]: < 0%
- apoptosis (early + late apoptotic cell percentage) A549 (A549 cells [4]): over 50%
- % Early Apoptotic (A549 cells [4]; 24 h): 23.7%
- % Late Apoptotic (A549 cells [4]; 24 h): 26.4%
- % Necrotic (A549 cells [4]; 24 h): 4.0%
- % Viable (A549 cells [4]; 24 h): 45.9%
- IC50 ([5]; Homo sapiens, MCF7, MTT, 24 h incubation): 243 ± 14.9 µM
- SI MCF-7 (selectivity index) ([5]; NIH/3T3 versus MCF-7): 1.0
- inhibition at 48.6 µM (A549 cells [6]): 50.8%
- IC50 [7]: 247 ± 12.2 µM
